Data: ChEMBL document CHEMBL1201862, “PubChem BioAssay data set” (2004)
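Results reflect a 48-hour exposure of cells in 96-well plates to compound at five concentrations. GI50: concentration for 50% inhibition of growth.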 Activity calls are given as the source filed them. No stated cut-off is given here; in the data, active = GI50 up to about 1.1 µM and inactive = higher.

Experiments:
Test in all cases: NCI tumour cell line growth inhibition, 48 h
M14 = system: M14
LOX IMVI = system: LOX IMVI
RPMI-8226 = system: RPMI-8226
CAKI-1 = system: CAKI-1
HCT-15 = system: HCT-15
ACHN = system: ACHN
HCT-116 = system: HCT-116
MOLT-4 = system: MOLT-4
U-251 = system: U-251
HL-60 = system: HL-60
A549 = system: A549
NCI-H522 = system: NCI-H522
KM12 = system: KM12
SN12C = system: SN12C
OVCAR-4 = system: OVCAR-4
Malme-3M = system: Malme-3M
HCC 2998 = system: HCC 2998
A498 = system: A498
HOP-92 = system: HOP-92
OVCAR-3 = system: OVCAR-3

Row | Structure (SMILES) | GI50 (M14) | GI50 (LOX IMVI) | GI50 (RPMI-8226) | GI50 (CAKI-1) | GI50 (HCT-15) [µM] | GI50 (ACHN) | GI50 (HCT-116) | GI50 (MOLT-4) | GI50 (U-251) | GI50 (HL-60) | GI50 (A549) | GI50 (NCI-H522) | GI50 (KM12) | GI50 (SN12C) | GI50 (OVCAR-4) | GI50 (Malme-3M) | GI50 (HCC 2998) | GI50 (A498) | GI50 (HOP-92) | GI50 (OVCAR-3)
1 | NC1=CN(Cc2ccccc2)C2=N/C(=C\c3ccccc3)C(=O)N12 | > 100 µM (inactive) | > 100 µM (inactive) | 71.3 µM (inactive) | > 100 µM (inactive) | > 100 | > 100 µM (inactive) | > 100 µM (inactive) | 97.3 µM (inactive) | > 100 µM (inactive) | 26.1 µM (inactive) | > 100 µM (inactive) | 51.3 µM (inactive) | 96.8 µM (inactive) | > 100 µM (inactive) | 38.2 µM (inactive) | > 100 µM (inactive) | > 100 µM (inactive) | > 100 µM (inactive) | > 100 µM (inactive) | > 100 µM (inactive)
2 | COc1nc2c(c(=O)n1C)N(C(C)=O)C1C(N2)OCC(OC(C)=O)C1OC(C)=O (stereo not given) | > 10 µM (inactive) | > 10 µM (inactive) | > 10 µM (inactive) | > 10 µM (inactive) | > 10 | > 10 µM (inactive) | > 10 µM (inactive) | > 10 µM (inactive) | > 10 µM (inactive) | > 10 µM (inactive) | > 10 µM (inactive) | > 10 µM (inactive) | > 10 µM (inactive) | > 10 µM (inactive) | > 10 µM (inactive) | > 10 µM (inactive) | > 10 µM (inactive) | > 10 µM (inactive) | > 10 µM (inactive) | > 10 µM (inactive)
